Experiment [1] deals with human-KOR (Homo sapiens, UniProt P41145). Nature of the experiment: Calcium mobilization assay, CHO-KOR cells expressing Gαqi5. It is filed as cell-based. Also noted: expressed in transfected cells; gift of Dr. Larry Toll (SRI International); infected with a retrovirus for Gαqi5. The note with it: agonist mode; Inactive = inactive at 10 μM; crc incomplete = incomplete concentration response curve at 10 μM; listed as LP1 (1). The protocol:
The pharmacological characterization of LP1 derivatives 2 and 10–16 was performed by calcium mobilization assay (Table 2). This procedure was preliminarily validated through a series of experiments where the effects of DPDPE, dermorphin, and dynorphin A were assessed in CHO cells expressing the human recombinant opioid receptors and Gαqi5 or GαqG66Di5 chimeric proteins.
Chinese hamster ovary (CHO) cells expressing the recombinant human MOR and KOR (CHO^MOR and CHO^KOR) were kindly provided by Dr. Larry Toll (SRI International, Menlo Park, CA, USA), and CHO cells expressing the recombinant human DOR (CHO^DOR) were supplied by Dr. Eva Varga (Department of Medical Pharmacology, The University of Arizona, Tucson, AZ, USA). CHO cells lines permanently coexpressing the opioid receptors and the C-terminally modified Gαqi5 were prepared by infecting the CHO lines described above with a recombinant retrovirus expressing the chimeric α subunit and the hygromycin resistance gene. Similarly, CHO cells lines permanently coexpressing DOR and the C-terminally modified GαqG66Di5 were prepared by infecting the CHO lines described above with a recombinant retrovirus expressing the chimeric α subunit and the hygromycin resistance gene. Polyclonal cell lines were generated using the pantropic retroviral expression system form BD-Clontech, as described previously. Stable lines were selected under hygromycin B (100 μg/mL) and geneticin (600 μg/mL) for 2–3 weeks after the infection.
CHO cells, expressing human opioid receptors and the Gαqi5 protein, and CHODOR, expressing the GαqG66Di5 protein, were maintained in culture medium consisting of Dulbecco minimum essential medium (DMEM) and Ham F-12 (1:1) (50/50) supplemented with 10% fetal calf serum (FCS), L-glutamine (2 mM), geneticin (200 μg/mL; G418), hygromycin B (100 μg/mL) at 37 °C in 5% CO2 humidified air. When confluence was reached (3–4 days), cells were subcultured as required using trypsin/EDTA, and used for experimentation. The different cell lines were seeded at a density of […] into black 96-well, clear-bottomed plates. After 24 h incubation, the cells were loaded with medium supplemented with 2.5 mM probenecid, 3 μM of the calcium sensitive fluorescent dye Fluo-4 AM, and 0.01% pluronic acid, for 30 min at 37 °C. Afterwards, the loading solution was aspirated and 100 μL/well of assay buffer—HBSS supplemented with 20 mM HEPES, 2.5 mM probenecid and 500 μM Brilliant Black (Aldrich, St. Louis, MO, USA)—was added. Serial dilutions of ligands for experimental use were made in HBSS/HEPES (20 mM) buffer (containing 0.005% BSA fraction V). After placing both plates (cell culture and compound plate) into the FlexStation II (Molecular Device, Union City, San Jose, CA 94587, USA), fluorescence changes were measured at room temperature. Online additions were carried out in a volume of 50 μL/well. Antagonists were incubated 15 min before the addition of the agonist. Maximum change in fluorescence, expressed in percent of baseline fluorescence, was used to determine agonist response.
Analysis of the binding data was performed using the Origin 7.5 software (OriginLab Corporation, Northampton, MA, USA). In calcium mobilization experiments, data were analyzed by non-linear curve fitting equation, using GraphPad 5.0 software. […] Ligand efficacy was expressed as intrinsic activity (α), calculated as the ratio between the Emax of the ligand and that of the respective standards. Calcium mobilization data were expressed as FIU (fluorescence intensity units) in percent, over the baseline. Agonist potencies are given as pEC50 (the negative logarithm to base 10 of the molar concentration of an agonist that produces 50% of the maximal possible effect, Emax). Concentration response curves to agonists were fitted with the following equation: Effect = baseline + (Emax − baseline)/(1+10^(LogEC50 − X) ∗ HillSlope) where X is the agonist concentration. […]
(In general: Calcium assays in cells follow changes in intracellular calcium, usually with a dye or a luminescent sensor.)

In experiment [2] the target is T1, rat-MOR (Rattus norvegicus, UniProt P33535).
T1 construct: expressed in transfected cells
T1 sequence (P33535 whole entry): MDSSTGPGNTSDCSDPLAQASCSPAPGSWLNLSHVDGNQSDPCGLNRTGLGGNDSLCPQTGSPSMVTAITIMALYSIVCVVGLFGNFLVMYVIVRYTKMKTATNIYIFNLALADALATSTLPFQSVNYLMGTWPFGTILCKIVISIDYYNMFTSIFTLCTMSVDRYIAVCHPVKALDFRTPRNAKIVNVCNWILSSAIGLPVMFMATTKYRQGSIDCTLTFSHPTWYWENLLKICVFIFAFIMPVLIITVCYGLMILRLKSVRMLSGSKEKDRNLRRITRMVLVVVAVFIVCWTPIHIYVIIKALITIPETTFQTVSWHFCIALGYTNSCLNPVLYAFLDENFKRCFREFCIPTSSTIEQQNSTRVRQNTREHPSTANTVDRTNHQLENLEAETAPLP
Kind of experiment: Radioligand competition binding, [3H]-DPN, HEK293 membranes, MOR. The note with it: [3H]-DPN displacement; means ± SEM of three experiments in duplicate; read-out: Ki (μM) ± SEM MOR. The protocol:
All synthesized compounds were tested in vitro by radioligand competition binding using [^3H]-diprenorphine ([^3H]-DPN) to measure the affinity for opioid receptor subtypes in membranes from HEK293 cells stably expressing either MOR, DOR, or KOR, as previously described.
Confluent monolayers of HEK293 (human embryonic kidney 293) cells stably expressing rat-MOR, rat-DOR, or human-KOR were harvested, collected by centrifugation at 1500 rpm for 5 min, and washed once with phosphate-buffered saline (PBS) at pH 7.5. Membranes from cell pellets were carried out as described by Georgoussi and Zioudrou (1993) and Papakonstantinou et al. (2015). Briefly, cell pellets were resuspended in ice-cold membrane buffer (10 mM Tris-HCl, pH 7.5 and 0.1 mM EDTA), homogenized, and centrifuged at 2,000 g for 3 min at 4 °C. Supernatants were further centrifuged at 45,000 rpm for 30 min at 4 °C. The membrane pellet was resuspended in ice-cold membrane buffer at a protein concentration of approximately 1 mg/mL and stored in aliquots at −70 °C. Protein concentration was determined according to Bradford assay.
In the experiments designed to define compound affinity and selectivity for MOR, DOR, and KOR, membranes expressing each of these opioid receptors ([…]) were incubated at 30 °C for 45 min in buffer containing 50 mM Tris-HCl, pH 7.5, 100 mM NaCl, and 10 mM MgCl2 as described by Georgoussi et al. […] The ability of compounds 10–16 to displace [^3H]-DPN (3.75 nM) binding to the opioid receptors was assessed as described by Morou And Georgoussi (2005). Non-specific binding was measured in the presence of […] Naloxone. The reaction was stopped by rapid filtration and three washes in ice-cold 50 mM Tris-HCl, pH 7.4, through GF/C filters (Whatman, Maidstone, UK) using an automated cell harvester (Brandel Inc., Gaithersburg, MD, USA). The radioactivity was measured by liquid scintillation counting (Liquid Scintillation Analyzer, Packard).
Analysis of the binding data was performed using the Origin 7.5 software (OriginLab Corporation, Northampton, MA, USA). In calcium mobilization experiments, data were analyzed by non-linear curve fitting equation, using GraphPad 5.0 software. […] Ligand efficacy was expressed as intrinsic activity (α), calculated as the ratio between the Emax of the ligand and that of the respective standards. Calcium mobilization data were expressed as FIU (fluorescence intensity units) in percent, over the baseline. Agonist potencies are given as pEC50 (the negative logarithm to base 10 of the molar concentration of an agonist that produces 50% of the maximal possible effect, Emax). Concentration response curves to agonists were fitted with the following equation: Effect = baseline + (Emax − baseline)/(1+10^(LogEC50 − X) ∗ HillSlope) where X is the agonist concentration.
For orientation: Loss of bound radioactivity is the signal in a displacement assay; it reports binding, not function.

Structures are written as SMILES.

Usually Ki stands for the dissociation constant of the complex between target and ligand, obtained from inhibition or displacement.

Sequence of human-KOR (P41145 whole entry): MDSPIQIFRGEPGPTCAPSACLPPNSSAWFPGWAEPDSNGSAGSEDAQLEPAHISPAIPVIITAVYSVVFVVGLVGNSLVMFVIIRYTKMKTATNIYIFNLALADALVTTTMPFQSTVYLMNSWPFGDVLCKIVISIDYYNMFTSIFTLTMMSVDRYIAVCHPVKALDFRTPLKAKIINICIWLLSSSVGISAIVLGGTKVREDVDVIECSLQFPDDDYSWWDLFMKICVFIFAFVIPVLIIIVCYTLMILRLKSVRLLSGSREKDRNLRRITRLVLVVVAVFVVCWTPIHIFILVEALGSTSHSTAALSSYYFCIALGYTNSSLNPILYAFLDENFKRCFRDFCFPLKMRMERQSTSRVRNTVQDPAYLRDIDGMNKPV

Consider `C[C@H]1[C@H]2Cc3ccc(O)cc3[C@]1(C)CCN2CCC(=O)Nc1ccccc1` [LP1, 3-[(2R,6R,11R)-8-hydroxy-6,11-dimethyl-1,4,5,6-tetrahydro-2,6-methano-3-benzazocin-3(2H)-yl]-N-phenylpropanamide, reference compound], for which the “KOR pEC50 (CL95%)” value in experiment [1] was “crc incomplete ^d”. In addition, in experiment [2], the inhibition constant (Ki) turned out to be 0.049 ± 0.015 µM.
